Key:
[1] = test system: A431 human epidermoid carcinoma cells (wild-type ERBB1); assay: Cell proliferation assay, A431; assay type: cell-based; conditions: A-431, 72 hrs
Experimental: The biological activity of a test compound was determined using cell proliferation assays. The activity against wild-type ERBB 1 was determined using A431 human epidermoid carcinoma cells (ATCC) and human epidermal keratinocytes, neonatal, or HEKn cells (ATCC).
A431 cells were grown in DMEM (Invitrogen) supplemented with 10% FBS (Lonza), 1% penicillin-streptomycin, and 2 mM glutamine (Invitrogen). HEKn cells were grown in EPILIFE® (Invitrogen) supplemented with HKGS (Invitrogen). HCC827 and H1975 were cultured in RPMI1640 supplemented with 10% FBS (Lonza), 1% penicillin-streptomycin, and 2 mM glutamine (Invitrogen). Cells were maintained and propagated at 37° C. and 5% CO2 in a humidified cell culture incubator. Aliquots of cells from early passages were preserved for liquid nitrogen storage. Frozen vials of cells were thawed at 37° C. water bath. Cells were spun to remove freezing medium. The newly revived frozen cells were adapted in culture for 10 days before used for compound testing. Cells used in the assay were less than 20 subculture passages or 3 months in culture.
The test compounds were dissolved in dimethylsulfoxide (DMSO) and stored at -20° C. before testing. […] The cells were placed in a culture incubator overnight. Next day, test compounds in DMSO were added to the cells and placed back in the culture incubator for 72 hrs. In the meantime, the cell numbers at time zero of the compound treatment (T0) was measured by ENERCOUNT® (Codex BioSolutions). At the end of the compound treatment, the cell numbers were again measured by EnerCount as T72 values. The untreated controls (Ctrl) were cell numbers recorded from the 0.1% DMSO treatment. The percent growth inhibition by the test compound was calculated by the formula: (1- (T72-T0)/(Ctrl-T0)) x 100.
The results are summarized in Tables 1 and 2, wherein A represents a value no greater than 500 nM, B represents a value greater than 500 nM but no greater than 1 µM, C represents a value greater than 1 µM but no greater than 5 µM, and D represents a value greater than 5 µM; and wherein A′ represents a ratio of greater than 10, B′ represents a ratio of no greater than 10 but no less than 5, C′ represents a ratio of no greater than 5 but no less than 2, and D′ represents a ratio of no greater than 2.

[2] = target: T1, ITK (Homo sapiens, UniProt Q08881); assay: Inhibition of ITK kinase; assay type: biochemical; conditions: 1% DMSO
T1 sequence (Q08881 1-620): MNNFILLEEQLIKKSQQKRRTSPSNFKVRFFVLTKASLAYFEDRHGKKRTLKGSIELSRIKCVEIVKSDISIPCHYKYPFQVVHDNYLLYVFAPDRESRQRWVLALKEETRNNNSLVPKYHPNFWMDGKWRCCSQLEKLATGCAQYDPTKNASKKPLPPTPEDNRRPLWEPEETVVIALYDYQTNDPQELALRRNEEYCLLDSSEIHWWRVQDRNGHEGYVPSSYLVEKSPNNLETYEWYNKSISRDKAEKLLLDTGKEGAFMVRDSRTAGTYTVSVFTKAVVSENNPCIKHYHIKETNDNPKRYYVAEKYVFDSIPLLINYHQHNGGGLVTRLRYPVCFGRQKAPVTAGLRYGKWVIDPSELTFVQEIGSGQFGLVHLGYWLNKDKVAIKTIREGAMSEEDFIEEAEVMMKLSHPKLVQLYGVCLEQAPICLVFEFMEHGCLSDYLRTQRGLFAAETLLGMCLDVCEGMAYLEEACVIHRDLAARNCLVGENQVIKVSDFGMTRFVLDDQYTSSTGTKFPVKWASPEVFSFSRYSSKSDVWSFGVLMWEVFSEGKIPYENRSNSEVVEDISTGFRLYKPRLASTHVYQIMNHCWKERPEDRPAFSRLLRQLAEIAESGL
Source text: The Z′-LYTE® biochemical assay is a fluorescence-based, coupled-enzyme assay based on the differential sensitivity of phosphorylated and non-phosphorylated peptides to proteolytic cleavage. A peptide substrate for a kinase is labeled with two fluorophores, one at each end, to form a FRET pair.
In the primary reaction, the kinase transfers the gamma-phosphate of ATP to a single tyrosine, serine, or threonine residue in the synthetic FRET-peptide substrate. In the secondary reaction, a site-specific protease recognizes and cleaves non-phosphorylated FRET-peptides. […] An inhibitory activity of a compound is thus determined from its effect on the cleavage of the synthetic FRET-peptide substrate.
Inhibition of BMX, BTK, ITK, and TXK kinases by a test compound is determined in 50 mM HEPES, pH 7.5, 0.01% BRIJ-35, 10 mM MgCl2, and 1 mM EGTA in the presence of 1% DMSO by volume.
Binding of an ALEXA FLUOR® conjugate or “tracer” to a kinase is detected by addition of a Eu-labeled anti-tag antibody. […] An inhibitory activity of a compound is thus determined from the extent of the FRET signal loss. Inhibition of ITK and TEC kinases by a test compound is determined in the presence of 1% DMSO.
Inhibition of BMX, BTK, PIK3C-D, ITK, TEC, and TXK kinases by compound A2 was measured using one of the assays described in Examples 2A and 3A.

## C=CC(=O)N1CCCC[C@@H](n2c(NC(=O)c3ccnc(C)c3)nc3cccc(OC4CCN(C(C)=O)CC4)c32)C1 [Compound A2, (R)-N-(7-((1-acetylpiperidin-4-yl)oxy)-1-(1-acryloylazepan-3-yl)-1H-benzo[d]imidazol-2-yl)-2-methylisonicotinamide]
[1]
  GI50: 0.5 to 1 µM
[2]
  IC50: ≤ 0.01 µM
  Inhibition: A (A represents a value no greater than 10 nM or no less than 90% inhibition)
